Experimental data taken from BindingDB's records for PubMed 8394902 (Georgetown University, 1993).
Where “and” joins values, the source holds several entries; their conditions need not be identical. Equal values may be shown once.

Molecular target: Gamma-aminobutyric acid receptor subunit alpha-1 (Rattus norvegicus, UniProt P62813)
Sequence (P62813 whole entry): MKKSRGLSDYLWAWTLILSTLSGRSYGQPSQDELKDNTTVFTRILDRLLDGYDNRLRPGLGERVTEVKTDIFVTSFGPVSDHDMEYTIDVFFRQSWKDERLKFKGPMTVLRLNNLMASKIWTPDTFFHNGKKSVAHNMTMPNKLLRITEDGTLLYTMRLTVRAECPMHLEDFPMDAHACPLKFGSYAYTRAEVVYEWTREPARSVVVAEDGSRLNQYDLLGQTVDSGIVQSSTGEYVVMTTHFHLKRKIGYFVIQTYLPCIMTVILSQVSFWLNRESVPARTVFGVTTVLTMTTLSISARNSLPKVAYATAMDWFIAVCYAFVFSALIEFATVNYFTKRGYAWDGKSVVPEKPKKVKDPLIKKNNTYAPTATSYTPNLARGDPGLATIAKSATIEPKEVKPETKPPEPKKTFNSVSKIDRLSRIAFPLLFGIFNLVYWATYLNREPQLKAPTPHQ

**Q.** How did the Ki turn out when Cc1nnc2n1-c1ccc(Cl)cc1C(c1ccccc1)=NC2 was run?
**A.** 21 nM and 65 nM
